According to patent publication US9815851B2, “Pyrrolo carboxamides as modulators of orphan nuclear receptor RAR-related orphan receptor-gamma (RORγ, NR1F3) activity and for the treatment of chronic inflammatory and autoimmune diseases” (PHENEX PHARMACEUTICALS AG, priority 2011, dated 2017):
Read-outs that look alike come from different tables or passages of the source.

Tests used:
[1] = target: T1, RORγ ligand binding domain (LBD) (Homo sapiens, UniProt P51449); assay: TR-FRET Activity Assay (ligand sensing, RORγ-LBD / coactivator peptide interaction, LANCE); type: biochemical
T1 construct: made in house; host or cells: E. coli BL-21 (BL3), vector pDEST15
T1 sequence (P51449 269-508 limits assumed): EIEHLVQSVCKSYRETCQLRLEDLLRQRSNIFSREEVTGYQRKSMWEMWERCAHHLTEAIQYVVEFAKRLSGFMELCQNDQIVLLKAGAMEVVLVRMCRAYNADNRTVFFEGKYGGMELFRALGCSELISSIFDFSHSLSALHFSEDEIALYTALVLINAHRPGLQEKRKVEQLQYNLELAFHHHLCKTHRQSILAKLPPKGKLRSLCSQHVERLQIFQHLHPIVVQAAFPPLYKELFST

RORγ = target: T2, RORγ (UniProt P51449); assay: RORγ Gal4 Reporter Gene Assay in 293T cells (firefly and renilla luciferase); type: cell-based, human
T2 sequence (P51449 1-518): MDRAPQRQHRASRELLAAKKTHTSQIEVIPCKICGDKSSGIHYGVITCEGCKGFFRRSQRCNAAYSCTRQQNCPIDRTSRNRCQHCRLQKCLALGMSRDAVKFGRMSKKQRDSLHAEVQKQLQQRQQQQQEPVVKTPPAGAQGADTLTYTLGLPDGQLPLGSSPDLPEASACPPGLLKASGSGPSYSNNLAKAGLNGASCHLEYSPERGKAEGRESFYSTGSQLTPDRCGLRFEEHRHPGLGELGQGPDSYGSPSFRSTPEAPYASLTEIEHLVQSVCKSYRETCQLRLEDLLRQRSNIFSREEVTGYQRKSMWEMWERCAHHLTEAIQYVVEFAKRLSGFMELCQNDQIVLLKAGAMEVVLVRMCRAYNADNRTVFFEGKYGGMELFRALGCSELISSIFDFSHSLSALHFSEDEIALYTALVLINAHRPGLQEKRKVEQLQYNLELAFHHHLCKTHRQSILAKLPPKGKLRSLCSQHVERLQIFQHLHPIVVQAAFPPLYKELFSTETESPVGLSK

[2] = first value of the cell FRET/FF/REN, TR-FRET activity assay, read-out: pIC50 (FRET) (converted)
[3] = second value of the cell, Gal4 reporter gene assay in 293T cells, firefly luciferase
[4] = third value of the cell, Gal4 reporter gene assay in 293T cells, renilla normalised luciferase

SMILES | IC50 [1, 2] [nM] | pIC50 (FF) (RORγ; [3]) | pIC50 (REN) (RORγ; [4]) | IC50 [1] [nM] | pIC50 (FF) (RORγ) | pIC50 (REN) (RORγ)
Cc1c(C(=O)NC2COC2)cc(-c2cc(C(C)(C)C)cc(C(C)(C)C)c2)n1CC1CCCCCC1 [1/115] | 251 | 7.3 | 7.3 |  |  | 
Cc1c(C(=O)NCC2CCS(=O)(=O)CC2)cc(-c2cc(C(C)(C)C)c3c(c2)C2(CCO3)CC2)n1CC1CCCCC1 [17/10] |  |  |  | 398 | 6.4/7.6/7.6 | 6.4/7.6/7.6
Cc1c(C(=O)NCCC(C)(C)C(=O)O)cc(-c2ccc(S(=O)(=O)NC(C)(C)C)c(OC(F)F)c2)n1CC1CCCCC1 [17/167] | 794 | 6.6 | 6.8 |  |  | 
Cc1c(C(=O)NCC2(O)CCS(=O)(=O)CC2)cc(-c2ccc(S(=O)(=O)NC(C)(C)C)c3ccccc23)n1CC1CCCCC1 [17/268] | 794 | 7.7 | 7.8 |  |  | 
Cc1c(C(=O)NCCS(N)(=O)=O)cc(-c2cc(C(C)(C)C)cc(C(C)(C)C)c2)n1CC1CCCCC1 [1/9] |  |  |  | 316 | 6.5/6.6/6.7 | 6.5/6.6/6.7
COCC(=O)NC(C)(C)CNC(=O)c1cc(-c2cc(C(C)(C)C)c3c(c2)C2(CCO3)CC2)n(CC2CCCCC2)c1C [17/124] |  |  |  | 794 | 6.1/7.4/7.5 | 6.1/7.4/7.5
CNC(=O)c1ccc(-c2cc(C(=O)NC3CCOCC3)c(C)n2CC2CCCCC2)cc1C(C)(C)C [6/4] | 10000 | < 4.7 | < 4.7 |  |  | 
Cc1c(C(=O)NCC(C)(C)O)cc(-c2cc(C(=O)NC(C)(C)C)nc(C3(C)CC3)n2)n1CC1CCCCC1 [17/373] | 5010 | < 4.7 | < 4.7 |  |  | 
Cc1c(C(=O)NC2CCOCC2)cc(-c2cc(S(=O)(=O)N3CCCCC3)c3ccccn23)n1CC1CCCCC1 [17/96] | 3160 | 6.9 | 7.0 |  |  | 
COC(C)(C)c1cc(-c2cc(C(=O)NC3CCOCC3)c(C)n2CC2CCCCC2)cc2c1OCCC21CC1 [17/325] |  |  |  | 2510 | 5.6/7.1/7.2 | 5.6/7.1/7.2
Cc1c(C(=O)NCCC(C)(C)C(=O)O)cc(-c2ccc(S(=O)(=O)N[C@@H](C)C(F)(F)F)c(C(F)(F)F)c2)n1CC1CCCCC1 [17/150] | 501 | 8.0 | 8.2 |  |  | 
Cc1c(C(=O)NCC(C)(C)O)cc(-c2ccc(S(=O)(=O)NC(C)(C)C)c3ccccc23)n1CC1CCCCC1 [17/264] | 631 | 7.9 | 7.7 |  |  | 
Cc1c(C(=O)NCC(C)(C)O)cc(-c2ccc(S(=O)(=O)NC(C)(C)C)c3ccccc23)n1CC1CCC(F)CC1 (stereo not drawn) [17/374] | 1580 | 7.3 | 7.3 |  |  | 
Cc1c(C(=O)NCc2nnn[nH]2)cc(-c2cc(C(C)(C)C)cc(C3(C)CC3)c2)n1CC1CCCCC1 [17/71] | 1580 | 6.9 | 6.8 |  |  | 
Cc1c(C(=O)NC2CCOCC2)cc(-c2ccc(S(=O)(=O)NC3(C#N)CC3)c(C(F)(F)F)c2)n1CC1CCCCC1 [17/144] | 501 | 7.7 | 7.7 |  |  | 
Cc1c(C(=O)NC2CCOCC2)cc(-c2ccc(C(=O)N(C)C)c(C(C)(C)C)c2)n1CC1CCCCC1 [6/5] | 2510 | 6.5 | 6.4 |  |  | 
COCCNC(=O)c1cc(-c2cc(C(C)(C)C)cc(C(C)(C)C)c2)n(CC2CCCCC2)c1C [1/64] | 316 | 6.5/6.5/6.5 | 6.5/6.5/6.5 |  |  | 
Cc1c(C(=O)NC2CCOCC2)cc(-c2ccc(S(=O)(=O)NC(C)(C)C)c(C(F)(F)F)c2)n1S(=O)(=O)C1CCCCC1 [17/218] | 316 | 7.1 | 7.3 |  |  | 
Cc1c(C(=O)NC2CC23CCOCC3)cc(-c2ccc(S(=O)(=O)NC(C)(C)C)c(C(F)(F)F)c2)n1CC1CCCCC1 (stereo not drawn) [17/210] | 158 | 7.9 | 8.1 |  |  | 
Cc1c(C(=O)NCC2(C(=O)O)CC2)cc(-c2cc(C(C)(C)C)c3c(c2)C2(CCO3)CC2)n1CC1CCCCC1 [17/51] | 1580 | 6.7 | 6.7 |  |  | 
Cc1c(S(=O)(=O)NC(C)(C)C)ccc(-c2cc(C(=O)NC3CCOCC3)c(C)n2CC2CCCCC2)c1Cl [17/274] | 251 | 7.9 | 7.9 |  |  | 

SMILES | IC50 [1, 2] [nM] | pIC50 (FF) (RORγ; [3]) | pIC50 (REN) (RORγ; [4]) | IC50 [1] [nM] | pIC50 (FF) (RORγ) | pIC50 (REN) (RORγ)
Cc1c(C(=O)N[C@H]2C[C@H](C(=O)O)C2)cc(-c2cc(C3(C)CC3)nc(C(C)(C)C)n2)n1CC1CCCCC1 [17/311] | 794 | 7.0 | 7.2 |  |  | 
Cc1c(C(=O)N[C@H]2C[C@H](C(=O)O)C2)cc(-c2cc(C(=O)NC(C)(C)C)cc(C3(C)CC3)c2)n1CC1CCCCC1 [17/339] | 1260 | 7.6 | 7.7 |  |  | 
Cc1cc(C(C)(C)C)cc(-c2cc(C(=O)N[C@H]3C[C@H](C(=O)O)C3)c(C)n2CC2CCCCC2)c1OC(F)F [17/194] | 12600 | 6.4 | 6.5 |  |  | 
Cc1c(C(=O)NC2COC2)cc(-c2cc(C(=O)N(C)C(C)(C)C)cc(C(F)(F)F)c2)n1CC1CCCCC1 [15/1] |  |  |  | 2000 | 5.7/6.6/6.7 | 5.7/6.6/6.7
Cc1c(C(=O)N(C)CC2(CO)COC2)cc(-c2cc(C(C)(C)C)cc(C3(C)CC3)c2)n1CC1CCCCC1 [17/78] |  |  |  | 501 | 6.3/7.3/7.3 | 6.3/7.3/7.3
Cc1c(C(=O)N[C@H]2C[C@H](C(=O)O)C2)cc(-c2cc(NCC(C)(C)C)nc(C(C)(C)C)c2)n1CC1CCCCC1 [17/196] | 3980 | 7.0 | 7.0 |  |  | 
Cc1c(C(=O)N[C@H]2C[C@H](C(=O)O)C2)cc(-c2ccc(S(=O)(=O)NC(C)(C)C)c3c(F)cccc23)n1CC1CCCCC1 [17/364] | 1000 | 6.9 | 7.0 |  |  | 
Cc1c(C(=O)NCCC(C)(C)C(=O)O)cc(-c2ccc(S(=O)(=O)NC(C)(C)C(F)(F)F)c(C(F)(F)F)c2)n1CC1CCCCC1 [17/161] | 631 | 7.6 | 7.6 |  |  | 
Cc1c(C(=O)NCC2(C)COC2)cc(-c2cc(C(C)(C)C)cc(C3(C)CC3)c2)n1CC1CCCCC1 [1/86] | 158 | 7.6 | 7.6 |  |  | 
CC(C)(C)NS(=O)(=O)c1ccc(-c2cc(C(=O)NC3CCOCC3)c(F)n2CC2CCCCC2)cc1C(F)(F)F [20/1] | 251 | 7.1 | 7.3 |  |  | 
Cc1c(C(=O)NC2CCOCC2)cc(-c2cc(C(C)(C)C)c3c(c2)C2(CCO3)CC2)n1CC1CCCCC1 [1/93] | 200 | 7.4 | 7.4 |  |  | 
Cc1c(C(=O)N[C@@H]2CCOC2)cc(-c2cc(C(C)(C)C)c3c(c2)C2(CCO3)CC2)n1CC1CCCCC1 [1/96] | 200 | 6.7 | 6.8 |  |  | 
Cc1c(C(=O)NCC(C)(C)O)cc(-c2ccc(S(=O)(=O)NC(C)(C)C)c3ccccc23)n1CC1CCC(F)(F)CC1 [17/278] | 2510 | 7.0 | 7.0 |  |  | 
Cc1c(C(=O)NC2CCOCC2)cc(-c2ccc(S(=O)(=O)NC(C)(C)C)c3ccccc23)n1CC1CCC1 [17/242] | 398 | 7.5 | 7.6 |  |  | 
Cc1c(C(=O)NCCC(C)(C)C(=O)O)cc(-c2cc(C(C)(C)C)cc(C(F)(F)F)c2)n1CC1CCCCC1 [17/305] |  |  |  | 2000 | 5.7/6.8/6.7 | 5.7/6.8/6.7
Cc1c(C(=O)N[C@H]2C[C@H](C(=O)O)C2)cc(-c2cc(C(C)(C)C)nc(C(C)(C)C)n2)n1CC1CCCCC1 [17/354] | 1000 | 7.0 | 7.0 |  |  | 
Cc1c(C(=O)NCCOC(C)C)cc(-c2cc(C(C)(C)C)cc(C(C)(C)C)c2)n1CC1CCCCC1 [1/62] |  |  |  | 316 | 6.5/6.4/6.3 | 6.5/6.4/6.3
COC(=O)[C@H]1C[C@H](NC(=O)c2cc(-c3cc(C(C)(C)C)cc(C4(C)CC4)c3)n(CC3CCCCC3)c2F)C1 [20/2] | 316 | 7.0 | 7.2 |  |  | 
Cc1c(C(=O)NC2COC2)cc(-c2cnc(OCC(C)(C)C)c(C(F)(F)F)c2)n1CC1CCCCC1 [9/13] | 1000 | 6.0 | 6.1 |  |  | 
Cc1c(C(=O)NCC2(C(=O)O)CCOCC2)cc(-c2cc(C(C)(C)C)c3c(c2)C2(CCO3)CC2)n1CC1CCCCC1 [17/40] | 1260 | 6.9 | 6.8 |  |  | 
